In PubChem BioAssay AID200 (DTP/NCI, 2004):
Several values for one entry are separate records, joined by “and”; a condition that tells them apart may be missing. Equal values may be shown once. Inconclusive results and toxic doses are left out. Where a SMILES comes first, the peptide text is derived from it. [ ]: non-standard residue; d: D form. Tyr(3,5-I2) = N[CH](Cc1cc(I)c(O)c(I)c1)C(=O)O

Tested on: B6C3F1 mice, B16 melanoma ip, median survival T/C
Assay: NCI In Vivo Anticancer Drug Screen. Data for tumor model B16 Melanoma (intraperitoneal) in B6C3F1 mice
Conditions: endpoint: median survival time, schedule: Q01DX009 (ip), higher = longer survival
Experimental: The antitumor activity of compounds was measured in mice bearing transplantable tumors. Survival or tumor size were measured and the results are expressed as the measurement made in the treated group (T) divided by the measurement made in the vehicle treated control group (C). The tumor model used in this assay is B16 Melanoma (intraperitoneal) in B6C3F1 mice

[1] = dose: 400.0 mg/kg/injection, vehicle: Klucel (hydroxypropylcellulose) (HPC)
[2] = dose: 25.0 mg/kg/injection, vehicle: saline with Tween-80
[3] = dose: 50.0 mg/kg/injection, vehicle: saline with Tween-80
[4] = dose: 100.0 mg/kg/injection, vehicle: saline with Tween-80
[5] = dose: 200.0 mg/kg/injection, vehicle: saline with Tween-80
[6] = dose: 400.0 mg/kg/injection, vehicle: saline with Tween-80
[7] = dose: 12.5 mg/kg/injection, vehicle: saline with Tween-80
[8] = dose: 12.5 mg/kg/injection, vehicle: Klucel (hydroxypropylcellulose) (HPC)
[9] = dose: 25.0 mg/kg/injection, vehicle: Klucel (hydroxypropylcellulose) (HPC)
[10] = dose: 50.0 mg/kg/injection, vehicle: Klucel (hydroxypropylcellulose) (HPC)
[11] = dose: 100.0 mg/kg/injection, vehicle: Klucel (hydroxypropylcellulose) (HPC)
[12] = dose: 200.0 mg/kg/injection, vehicle: Klucel (hydroxypropylcellulose) (HPC)

In the case of `Cc1cc(NCCN(C(C)C)C(C)C)nc(/N=C(\N)Nc2ccc(Cl)c(C(F)(F)F)c2)n1`, the T/C (dose: 1.25 mg/kg/injection, vehicle: Klucel (hydroxypropylcellulose) (HPC)) is reported as 111 % of control, the T/C (dose: 2.5 mg/kg/injection, vehicle: Klucel (hydroxypropylcellulose) (HPC)) is reported as 106 % of control and the T/C (dose: 5.0 mg/kg/injection, vehicle: Klucel (hydroxypropylcellulose) (HPC)) is reported as 100 % of control. For the same compound, the T/C (dose: 10.0 mg/kg/injection, vehicle: Klucel (hydroxypropylcellulose) (HPC)) was 86 % of control, the T/C (dose: 20.0 mg/kg/injection, vehicle: Klucel (hydroxypropylcellulose) (HPC)) was 96 % of control and the T/C (dose: 40.0 mg/kg/injection, vehicle: Klucel (hydroxypropylcellulose) (HPC)) was 98 % of control.
`CS(=O)(=O)CS(=O)(=O)OCCF` was tested, and the T/C (dose: 3.12 mg/kg/injection, vehicle: saline) was 107 % of control, the T/C (dose: 5.4 mg/kg/injection, vehicle: saline) was 100 % of control and the T/C (dose: 6.25 mg/kg/injection, vehicle: saline) was 116 % of control. The T/C (dose: 9.0 mg/kg/injection, vehicle: saline) was 110 % of control and 100 % of control, the T/C (dose: 15.0 mg/kg/injection, vehicle: saline) was 113 % of control and 119 % of control and the T/C (dose: 41.67 mg/kg/injection, vehicle: saline) was 121 % of control and 216 % of control.
With `CC(=O)NC(Cc1ccccc1)C(=O)NC(Cc1cc(I)c(O)c(I)c1)C(=O)O` (configuration not stated) (Ac-Phe-[Tyr(3,5-I2)]-OH; configuration not given here) the T/C [1] was 89 % of control.
In the case of `CC(=O)Nc1cscc1NC(C)=O`, the T/C [2] is reported as 94 % of control and 102 % of control, the T/C [3] is reported as 111 % of control and 100 % of control and the T/C [4] is reported as 94 % of control. The T/C [5] was 108 % of control and 99 % of control and the T/C [6] was 96 % of control and 104 % of control.
With `CC(Cc1ccc(O)cc1)NCC(O)c1ccc(O)c(O)c1` (configuration not stated) the T/C [7] was 97 % of control, the T/C [2] was 92 % of control and the T/C [3] was 100 % of control. The T/C [4] was 101 % of control, the T/C [5] was 101 % of control and the T/C [6] was 111 % of control.
`C=C1C(=O)O[C@@H]2[C@H]3O[C@]3(C)CCC=C(C)CC[C@@H]12` was tested, and the T/C (dose: 6.25 mg/kg/injection, vehicle: Klucel (hydroxypropylcellulose) (HPC)) was 91 % of control, the T/C [8] was 97 % of control and the T/C [9] was 98 % of control. For the same compound, the T/C [10] was 108 % of control.
For `O=C1N(CC2CO2)CCN1CC1CO1` (configuration not stated), the T/C (dose: 12.5 mg/kg/injection, vehicle: saline) was 117 % of control and 97 % of control, the T/C (dose: 12.5 mg/kg/injection, vehicle: suspension in saline) was 114 % of control and the T/C (dose: 25.0 mg/kg/injection, vehicle: saline) was 118 % of control and 107 % of control. The T/C (dose: 25.0 mg/kg/injection, vehicle: suspension in saline) was 124 % of control, the T/C (dose: 50.0 mg/kg/injection, vehicle: saline) was 115 % of control and the T/C (dose: 50.0 mg/kg/injection, vehicle: suspension in saline) was 165 % of control. For the same compound, the T/C (dose: 100.0 mg/kg/injection, vehicle: suspension in saline) was 90 % of control and the T/C (dose: 200.0 mg/kg/injection, vehicle: saline) was 122 % of control.
For `Cc1c(NS(=O)(=O)c2ccccc2)c(C)c(NS(=O)(=O)c2ccccc2)c(C)c1NS(=O)(=O)c1ccccc1`, the T/C [7] was 97 % of control, the T/C [2] was 100 % of control and the T/C [3] was 94 % of control.
In the case of `CC(C)CC(NC(=O)OCc1ccccc1)C(=O)O` (configuration not stated), the T/C [7] is reported as 108 % of control, the T/C [2] is reported as 102 % of control and the T/C [3] is reported as 102 % of control and 106 % of control. For the same compound, the T/C [4] was 112 % of control and 101 % of control and the T/C [5] was 105 % of control.
For `NCC(=O)NC(Cc1ccccc1)C(=O)NCC(=O)O` (configuration not stated) (HELM PEPTIDE1{G.[O=C(C(Cc1ccccc1)N[*:1])[*:2]].G}$$$$V2.0), the T/C [11] was 103 % of control, the T/C [12] was 95 % of control and the T/C [1] was 100 % of control.
For `C=Cc1cnc([N+](=O)[O-])n1C`, the T/C [8] was 99 % of control and 106 % of control, the T/C [9] was 103 % of control and 107 % of control and the T/C [10] was 100 % of control and 105 % of control. The T/C [11] was 109 % of control and 106 % of control and the T/C [12] was 110 % of control and 100 % of control.
